Patent publication US20200289554A1, “BIOORTHOGONAL COMPOUNDS COMPRISING A PROPARGYL GROUP FOR TREATING CANCER” (THE UNIVERSITY COURT OF THE UNIVERSITY OF EDINBURGH, priority 2016, published 2020)

Columns and labels:
BxPC3 cells [1] = experiment: Prodrug safety dose-response cell viability (PrestoBlue), BxPC3; type: cell-based; settings: Homo sapiens, BXPC-3, 120 h, 5 days, no catalyst
Experimental: (§1) These cell lines were selected as these are primary malignancies against which the parental drugs are currently prescribed.
(§2) The toxicities of each active agent and prodrugs were compared by performing dose-response studies. […] Cell viability was analysed by fluoresce intensity (λex=540 nm; λem=590 nm) after 60-90 min incubation with PrestoBlue™ Reagent (Life Technologies).

HCT116 cells [2] = experiment: Prodrug safety dose-response cell viability (PrestoBlue), HCT116; type: cell-based; settings: Homo sapiens, HCT-116, 120 h, 5 days, no catalyst
Experimental: as §1, §2

BxPC3 cells [3] = experiment: BOOM conversion: prodrug + Pd0-resins in cell culture, cell viability, BxPC3; type: cell-based, human; settings: Pd0-resin 1 mg/mL, 3 μM prodrug
Experimental: (§3) Cell viabilities for each prodrug provided as a combination with palladium is presented in FIG. 16 in the right of each set of two bars. Data for prodrug in the absence of palladium catalyst is also provided (the left bar of each set of two bars) for comparison along with negative controls (from left to right: DMSO, Pd^0 and 5FU). Cells were incubated in tissue culture media containing 0.1% (v/v) DMSO and: Pd^0-resins (1 mg/mL, negative control); 3 μM (for BxPC3 cells) or 30 μM (for HCT116 cells) of prodrug (negative control); and Pd^0-resins (1 mg/mL)+3 μM (BxPC3) or 30 μM (HCT116) of each prodrug (BOOM reaction assay). […]
(§4) Following 5 days treatment, cells were incubated with PrestoBlue™ Cell Viability Reagent (Life Technologies) for 90 min. Fluorescence intensity values were related to the untreated cells (100% cell viability). […]
(§5) The toxigenic effect as a result of in situ generation of parental drug in cell culture was determined by incubating all cells in tissue culture media containing 0.1% (v/v) DMSO and a) Pd^0, Au, or Pd/Au-resin (1 mg/mL for all cells tested, negative control); b) prodrug (negative control); or c) Pd^0, Au, or Pd/Au-resin (1 mg/mL for all cells)+prodrug (reaction assay). […]
(§6) A dose response study was performed for each cell line keeping the quantity of Pd^0 resin constant (0.8 mg/mL for U87G and 1 mg/mL for the rest of cell lines). […]

HCT116 cells [4] = experiment: BOOM conversion: prodrug + Pd0-resins in cell culture, cell viability, HCT116; type: cell-based, human; settings: Pd0-resin 1 mg/mL, 30 μM prodrug
Experimental: as §3, §4, §5, §6

T98 cells = experiment: Prodrug safety dose-response cell viability (PrestoBlue), T98; type: cell-based; settings: Homo sapiens, 120 h, 5 days, no catalyst
Experimental: as §1, §2

DU145 cells = experiment: Prodrug safety dose-response cell viability (PrestoBlue), DU145; type: cell-based; settings: Homo sapiens, DU-145, 120 h, 5 days, no catalyst
Experimental: as §1, §2

A549 cells = experiment: Prodrug safety dose-response cell viability (PrestoBlue), A549; type: cell-based; settings: Homo sapiens, 120 h, 5 days, no catalyst
Experimental: as §1, §2

A2780 cells = experiment: Prodrug safety dose-response cell viability (PrestoBlue), A2780; type: cell-based; settings: Homo sapiens, 120 h, 5 days, no catalyst
Experimental: as §1, §2

U87G cells [5] = experiment: BOOM conversion: prodrug + Pd0-resins in cell culture, cell viability, U87G; type: cell-based, human; settings: Pd0-resin, SN-38 prodrug
Experimental: Following 5 days treatment, cells were incubated with PrestoBlue™ Cell Viability Reagent (Life Technologies) for 60-90 min. Fluorescence intensity values were related to the untreated cells (100% cell viability). […] Cells incubated in 0.1% (v/v) DMSO in media were used as untreated cell control.
The toxigenic effect as a result of in situ generation of parental drug in cell culture was determined by incubating all cells in tissue culture media containing 0.1% (v/v) DMSO and a) Pd^0, Au, or Pd/Au-resin (1 mg/mL for all cells tested, negative control); b) prodrug (negative control); or c) Pd^0, Au, or Pd/Au-resin (1 mg/mL for all cells)+prodrug (reaction assay). Cells incubated in 0.1% (v/v) DMSO in media was used as an untreated cell reference standard (100% viability). A PrestoBlue® cell viability assay as described above was carried out and fluorescent intensities compared to the untreated cell control.
(§7) A dose response study was performed for each cell line keeping the quantity of Pd^0 resin constant (0.8 mg/mL for U87G and 1 mg/mL for the rest of cell lines). […] Fluorescence intensity values (detected using a PerkinElmer EnVision 2101 multilabel reader with excitation filter at 540 nm and emissions filter at 590 nm) were determined relative to the untreated cell control.

U87G cells [6] = experiment: Prodrug safety dose-response cell viability (PrestoBlue), U87G; type: cell-based, human; settings: Homo sapiens, 120 h, read-out: EC50 (cell viability)
Experimental: as §1, §2

MiaPaCa2 cells [7] = experiment: Prodrug safety dose-response cell viability (PrestoBlue), MiaPaCa2; type: cell-based, human; settings: relative to Gemcitabine
Experimental: as §1, §2

MiaPaCa2 cells [8] = experiment: BOOM conversion: prodrug + Pd0-resins in cell culture, cell viability, MiaPaCa2; type: cell-based, human
Experimental: Cell viabilities for each prodrug provided as a combination with palladium is presented in FIG. 10 in the right of each set of two bars. Data for prodrug in the absence of palladium catalyst is also provided (the left bar of each set of two bars) for comparison along with negative controls (from left to right: DMSO, Pd^0 and Gemcitabine). Cells were incubated in tissue culture media containing 0.1% (v/v) DMSO and: Pd^0-resins (1 mg/mL, negative control); 0.03 μM of each prodrug (negative control); and Pd^0-resins (1 mg/mL)+0.03 μM of each prodrug (BOOM reaction assay). Cells incubated in 0.1% (v/v) DMSO in media were used as untreated cell control.
Following 5 days treatment, cells were incubated with PrestoBlue™ Cell Viability Reagent (Life Technologies) for 90 min. Fluorescence intensity values were related to the untreated cells (100% cell viability). Data are provided in FIG. 11 for cells incubated in tissue culture media containing 0.1% (v/v) DMSO and: Pd^0-resins (1 mg/mL, negative control); 0.003-0.3 μM of pPOBC-Gem (negative control); 0.003-0.3 μM of Gemcitabine (positive control); and Pd^0-resin (1 mg/mL)+pPOBC-Gem (BOOM reaction assay). Cells incubated in 0.1% (v/v) DMSO in media were used as untreated cell control.
as §5, with “assay). Cells incubated in 0.1% (v/v) DMSO in media was used as an untreated cell reference standard (100% viability).” for “assay).”
as §7

Work on `O=c1[nH]cc(F)c(=O)[nH]1` [5FU, 5-fluorouracil, reference compound] yielded an EC50 (BxPC3 cells [1]) of 140 nM and an EC50 (HCT116 cells [2]) of 1500 nM.

With `C#CCOc1ncc(F)c(OCC#C)n1` [Bis-Pro-5FU, 2,4-bispropargyl-5-fluorouracil] the EC50 (BxPC3 cells [1]) was > 100000 nM, the “toxigenic effect of prodrug + Pd0 resins” value (BxPC3 cells [3]) was “strong toxigenic effect” and the EC50 (HCT116 cells [2]) was > 100000 nM. The “toxigenic effect of prodrug + Pd0 resins” value (HCT116 cells [4]) was “strong toxigenic effect”.

With `COc1cccc2c1C(=O)c1c(O)c3c(c(O)c1C2=O)C[C@@](O)(C(=O)CO)C[C@@H]3O[C@H]1C[C@H](N)[C@H](O)[C@H](C)O1` [Doxorubicin, reference compound] the EC50 (T98 cells) was 320 nM, the EC50 (DU145 cells) was 23 nM and the EC50 (A549 cells) was 105 nM.

`O=C(c1cc(Cc2n[nH]c(=O)c3ccccc23)ccc1F)N1CCN(C(=O)C2CC2)CC1` [Olaparib, reference compound] was tested, and the EC50 (A2780 cells) was 1870 nM.

`C#CCOc1nnc(Cc2ccc(F)c(C(=O)N3CCN(C(=O)C4CC4)CC3)c2)c2ccccc12` [Prop-Olap, 4-[(3-[(4-cyclopropylcarbonyl)piperazin-4-yl]carbonyl)-4-fluorophenyl]methyl-phthalazin-1-oxypropargyl] was tested, and the EC50 (A2780 cells) was > 100000 nM.

With `C#CCOc1cccc(OCC#C)c1COc1ccc2nc3c(c(CC)c2c1)Cn1c-3cc2c(c1=O)COC(=O)[C@]2(O)CC` [di-oPOB-SN-38, (S)-9-((2,6-bis(prop-2-yn-1-yloxy)benzyl)oxy)-4,11-diethyl-4-hydroxy-1,12-dihydro-14H-pyrano[3′,4′:6,7]indolizino[1,2-b]quinoline-3,14(4H)-dione] the “toxigenic effect of prodrug + Pd0 resins” value (U87G cells [5]) was “strong toxigenic effect” and the EC50 (U87G cells [6]) was 3150 nM.

With `C#CCOc1ccc(COC(=O)Nc2ccn(C3OC(CO)C(O)C3(F)F)c(=O)n2)cc1` (stereo not shown) [pPOBC-Gem, 4-proparglyoxybenzylcarbamoyl Gemcitabine] the “reduction in the cytotoxic effect relative the parent active agent” value (MiaPaCa2 cells [7]) was 27 fold, the EC50 (MiaPaCa2 cells [8]; Homo sapiens, MIA PaCa-2, 120 h, prodrug in combination with Pd0-resins 1 mg/mL, 5 days, read-out: EC50, prodrug + Pd-resins) was 226 nM and the “toxigenic effect of prodrug + Pd0 resins” value (MiaPaCa2 cells [8]; Pd0-resin 1 mg/mL, 0.03 μM Gemcitabine prodrugs) was “strong toxigenic effect”.
